For series [1], the system named is LNcap FGC cells. In words: Inhibition of proliferation of LNcap FGC cells (Cell Titer Glo, 6 days). The format is cell-based. The settings on record: Homo sapiens, 144 h. As to the method: Tumor cell line LNcap FGC (ATCC catalog number CRL-1740) was cultured in RPMI 1640 (Gibco catalog number 11875-093) and DMEM (Gibco catalog number. 11965-092) medium containing 10% FBS (Gibco catalog number 10099-141C), respectively.
(§1) LNcap FGC cells were inoculated in a 384-well plate (Perkin Elmer catalog number 6007460) at a cell density of 400 cells/well in a volume of 20 μL/well and incubated overnight in a carbon dioxide incubator (Thermo). The prepared compound solutions of different concentrations were added in a volume of 5 μL/well. The corresponding vehicle control was set at the same time. After being cultured in the incubator for 6 days, the cell plate and the contents were equilibrated to room temperature, and 25 μL of Cell Titer Glor (Promega catalog number G7573) was added to each well, shook and mixed well, incubated in dark for 10-30 minutes, and the signal values were detected with Envision microplate reader (PerkinElmer).
The percentage inhibition rate of compound-treated wells was calculated from the vehicle control wells on the plate, and the percentage inhibition rate data corresponding to different concentrations were fitted by GraphPad prism, and the IC50 values were calculated by 4-parameter nonlinear logic formula.

Series [2] has as its target T1, androgen receptor (Homo sapiens, UniProt P10275, T878A).
T1 construct: endogenous in cells; host or cells: LNCaP cells
T1 sequence (P10275 1-920 T878A): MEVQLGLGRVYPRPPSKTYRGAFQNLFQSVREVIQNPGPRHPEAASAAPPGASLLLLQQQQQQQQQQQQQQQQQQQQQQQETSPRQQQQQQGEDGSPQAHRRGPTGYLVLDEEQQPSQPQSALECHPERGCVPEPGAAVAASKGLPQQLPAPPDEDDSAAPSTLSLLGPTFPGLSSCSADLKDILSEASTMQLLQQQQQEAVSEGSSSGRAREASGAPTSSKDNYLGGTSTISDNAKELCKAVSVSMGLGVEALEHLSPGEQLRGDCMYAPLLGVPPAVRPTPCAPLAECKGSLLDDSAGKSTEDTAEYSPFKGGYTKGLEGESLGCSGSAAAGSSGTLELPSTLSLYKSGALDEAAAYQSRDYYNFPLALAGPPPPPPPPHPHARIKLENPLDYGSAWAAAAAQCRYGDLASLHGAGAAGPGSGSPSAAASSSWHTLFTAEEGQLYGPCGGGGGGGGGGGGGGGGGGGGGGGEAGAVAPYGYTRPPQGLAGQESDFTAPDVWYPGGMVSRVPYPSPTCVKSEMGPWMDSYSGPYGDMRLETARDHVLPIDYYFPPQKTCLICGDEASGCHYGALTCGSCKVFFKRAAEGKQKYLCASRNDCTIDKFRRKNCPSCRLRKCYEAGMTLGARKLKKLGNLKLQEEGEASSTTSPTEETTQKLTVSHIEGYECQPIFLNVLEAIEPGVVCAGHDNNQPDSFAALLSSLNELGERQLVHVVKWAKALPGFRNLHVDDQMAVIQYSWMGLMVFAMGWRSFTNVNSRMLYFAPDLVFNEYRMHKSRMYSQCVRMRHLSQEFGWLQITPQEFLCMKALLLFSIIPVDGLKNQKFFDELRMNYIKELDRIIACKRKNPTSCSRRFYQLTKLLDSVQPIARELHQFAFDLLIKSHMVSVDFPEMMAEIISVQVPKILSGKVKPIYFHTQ
Briefly: In-Cell-Western determination of androgen receptor degradation in LnCaP cells. It counts as cell-based. The settings on record: for DC50: concentration for half of the maximal degradation of AR in LnCaP cells. On the procedure: The determination evaluated the properties of the compounds in Lncap cells. Intracellular androgen receptor was determined by In-Cell-Western according to the determination steps described below.
In poly-D-Lysin pretreated 96-well cell culture plate (Corning 3599), LNcap cells were divided into 100 μL/well volume, and inoculated with 30,000 cells/well in LNcap cell assay medium [DMEM containing phenol red (Gibco catalog number: 11995065); fetal bovine serum FBS (Gibco catalog number: 10099141C)]. Cells were cultured for at least two days.
1. First treated cells with compound. Compounds were gradient diluted with DMSO and cell culture medium, so that DMSO contained in cell culture plates was diluted to 0.5% —polypropylene plates were used according to the following protocol: (1)(i) 200× stock plate in DMSO was prepared; (ii) 10 mM stock solution was diluted 1:4 with DMSO (10 μL stock solution+40 μL DMSO)=2000 μM, then entered into row 2; (iii) 1:4 (10 μL protac+40 μL DMSO) gradient dilution was performed from row 2 to row 9, and row 1 was reserved for […] reference compound and row 10 for DMSO. (iv) A total of 8 concentrations (final concentrations on the 200× plate were 2000 μM, 400 μM and 80 μM, etc.). (2) (i) 3× stock solution was prepared in the medium. (ii) 3 μL of 200× stock solution was transferred to 197 µL of culture medium (using 12-channel pipette, from line 1 to line 10), i.e. 3× stock solution plate. (iii) The stock solution plate was mixed evenly. (3) (i) The culture medium of […] cells was replaced with fresh culture medium, 100 μL volume culture medium. (ii) The well-mixed 3× stock solution was transferred to the cell culture plate (using a 12-channel pipette, and 50 μL of stock solution was transferred from line 1 to line 10). (iii) Cells were cultured for 24 hours.
2. The expression level of intracellular androgen receptor after compound treatment was […] and determined according to the following method.
(1)(i) Equal volume of 8% paraformaldehyde was added to the cell culture plate for cell fixation. The fixing solution in the cell plate was discarded and washed three times with PBS. (ii) Triton solution (1:1000 dilution of the stock solution) was prepared. The solution in the cell plate was discarded, and 200 μL of Triton diluent was added into each well. (iii) 2×blocking solution (1:4 dilution of 10×blocking stock solution) was prepared. The solution in the cell plate was discarded, and 100 μL of 2×blocking solution was added into each well. (iv) Primary antibody solution (Androgen receptor Rabbbit mAb, Cell Signaling Technology catalog number: 5153; 1:1000 dilution) was prepared. The solution in the cell plate was discarded, 100 μL volume of primary antibody diluent was added to each well, and incubated at 4° C. overnight. (v) The primary antibody solution was discarded and the cell plate was washed with 1×Wash buffer. (vi) Secondary antibody solution (GOAT Antirabbit IgG (H+L), HRP, Thermo catalog number: 31460; 1:5000 dilution) was prepared, and 100 μL volume of secondary antibody dilution was added to each well for incubation. (vii) The secondary antibody solution in the cell plate was discarded and the cell plate was washed with 1×Wash buffer. (viii) TMB chromogenic solution (BD catalog number: 550534) was prepared, and 100 μL chromogenic solution was added into each well. (ix) 50 μL volume of stop solution (BD catalog number: 550534) was added to each well. (x) The absorption values at OD 450 nm and 570 nm were read though EnVision. (2) (i) Normalized analysis was performed on the number of cells in each well. The solution in the cell plate was discarded, and washed with wash buffer for three times. (ii) Janus dilution (1:3 dilution) was prepared. (iii) 50 μL volume diluent was added to each well for incubation. (iv) The solution in the plate was discarded and washed with deionized water. […]

In series [3] the test system is VCap cells. In words: Inhibition of proliferation of VCap cells (Cell Titer Glo, 6 days). It counts as cell-based. The conditions noted are these: Homo sapiens, 144 h. As to the method:
Tumor cell line VCap FGC (ATCC catalog number CRL-2876) was cultured in DMEM (Gibco catalog number 11965-092) medium containing 10% FBS (Gibco catalog number 10099-141C), respectively. During the determination, Vcap cells were replaced with DMEM medium containing 5% FBS and 0.1 nM R1881 (Sigma catalog number R0908).
as §1, with “Vcap” for “LNcap”, “1200” for “400”, “shake” for “shook”, “mix” for “mixed”, “though” for “with”
The percentage inhibition rate of compound-treated wells was calculated from vehicle control wells on the plate, and the percentage inhibition rate data corresponding to different concentrations were fitted by GraphPad prism, and the IC50 values were calculated by 4-parameter nonlinear logic formula.

Series [4] in a line: In vivo pharmacokinetics in mice, intravenous injection and oral administration. Details: species or system mouse. The settings on record: male CD1 mice. As to the method:
In this experimental example, in vivo pharmacokinetics in mice were evaluated by intravenous injection and oral administration.
Experimental methods and conditions: Male CD1 mice, aged 6-8 weeks, all animals were free access to food and water, and were given a single dose of the compound to be tested at 1 mg/Kg by intravenous injection (solvent 5% DMSO/15% Solutol/80% Saline), at 5 min, 15 min, 30 min, 1 hr, 2 hr, 4 hr, 8 hr, 24 hr, 48 h after drug administration, or oral gavage administration of 10 mg/kg (solvent 5% DMSO/10% Solutol/85% Saline), at 15 min, 30 min, 1 hr, 2 hr, 4 hr, 6 h, 8 hr, 24 hr, 48 h after administration, blood was collected from the orbit, no less than 50 μL for each sample, heparin sodium was used for anticoagulation, and then placed on ice after collection, and centrifuged within 1 hour to separate the plasma for testing. The plasma concentration of the drug was detected by liquid tandem mass spectrometry (LC/MS/MS), and the pharmacokinetic parameters were calculated by Phoenix WinNonlin software.

[5] abbreviates: LnCaP cell proliferation, 6 days, read-out: IC50.
[6] abbreviates: maximum degree of inhibition of LnCaP cell proliferation, 6 days, read-out: Emax.
The mark [7] stands for this setting: mouse, intravenous administration 1 mg/kg, plasma.
Where [8] appears, read: mouse, oral administration 10 mg/kg, plasma.

pIC50: −log10 of the molar value. Read-outs that look alike come from different tables or passages of the source.

As for `COc1cc(N2C(=O)C(C)(C)c3cc(-c4ccc(N5CC(CN6CCN(c7ccc8c(c7)C(=O)N(C7CCC(=O)NC7=O)C8=O)CC6)C5)cc4)ccc32)ccc1C#N` (centres unmarked) [Compound 2], in series [1] (setting [5]), the pIC50 is 7.05. Also, in series [1] (setting [6]), the Emax was 98%.
In series [2] (LNCaP), `CC1(C)C(=O)N(c2ccc(C#N)c(Cl)c2)c2ccc(-c3ccc(N4CC(CN5CCN(c6ccc7c(c6)CN(C6CCC(=O)NC6=O)C7=O)CC5)C4)cc3)cc21` (centres unmarked) [Compound 4] yielded a Dmax of 91%. Moreover, half-maximal degradation in series [2] (24 hours treatment) (DC50) was put at 108 nM.
With `CC1(C)C(=O)N(c2ccc(C#N)c(Cl)c2)c2ccc(-c3ccc(N4CC(F)(CN5CCN(c6ccc7c(c6)C(=O)N(C6CCC(=O)NC6=O)C7=O)CC5)C4)cc3)cc21` (centres unmarked) [Compound 5], the pIC50 in series [1] (setting [5]) was 7.02. Further, the Emax in series [1] (setting [6]) amounted to 93%.
In series [1] (LNCaP), `CC1(C)C(=O)N(c2ccc(C#N)c(Cl)c2)c2ccc(-c3ncc(N4CC(CN5CCN(c6ccc7c(c6)C(=O)N(C6CCC(=O)NC6=O)C7=O)CC5)C4)cn3)cc21` (centres unmarked) [Compound 6] had an Emax of 99% and a pIC50 of 7.12. In series [3] (VCaP), the Emax turned out to be 94% and the pIC50 was 7.09. In addition, the F in series [4] (oral administration 10 mg/kg vs intravenous 1 mg/kg) is given as 71.3%. In series [4] (setting [7]), this compound showed an AUC(0-inf) of 9860 ng·h/mL, a clearance of 1.69 mL/min/kg and a half-life of 11.2 h. Moreover, in series [4] (setting [8]), the AUC(0-inf) is 70300 ng·h/mL, the maximum concentration (Cmax) came to 2920 ng/mL and the half-life is 11.2 h.
`CC1(C)C(=O)N(c2ccc(C#N)c(Cl)c2)c2ccc(-c3ccc(N4CC(CN5CCN(c6cc7c(cc6F)C(=O)N(C6CCC(=O)NC6=O)C7=O)CC5)C4)cc3)cc21` (centres unmarked) [Compound 7] returned a Dmax in series [2] (LNCaP) of 75%. For the same compound, the DC50 in series [2] (24 hours treatment) came out at 72.1 nM.
For the compound `CC1(C)C(=O)N(c2ccc(C#N)c(Cl)c2)c2ccc(-c3cnc(N4CC(CN5CCN(c6ccc7c(c6)C(=O)N(C6CCC(=O)NC6=O)C7=O)CC5)C4)cn3)cc21` (centres unmarked) [Compound 10], the pIC50 in series [1] (setting [5]) was 7.40; in series [3] (VCaP cell proliferation, 6 days, 5% FBS and 0.1 nM R1881, read-out: IC50) it was 7.30. In addition, the Emax in series [1] (setting [6]) came out at 100%; in series [3] (maximum degree of inhibition of VCaP cell proliferation, 6 days, 5% FBS and 0.1 nM R1881, read-out: Emax), 98%.
With `CC1(C)C(=O)N(c2cnc(C#N)c(Cl)c2)c2ccc(-c3ccc(N4CC(CN5CCN(c6ccc7c(c6)C(=O)N(C6CCC(=O)NC6=O)C7=O)CC5)C4)cc3)cc21` (centres unmarked) [Compound 11], the DC50 in series [2] (24 hours treatment, read-out: DC50) was 74.7 nM. In addition, in series [2] (maximum degradation of AR in LnCaP cells, 24 hours treatment, read-out: Dmax), the Dmax turned out to be 74%.
Compound `CC1(C)C(=O)N(c2ccc(C#N)c(Cl)c2)c2ccc(-c3ccc(-c4cnn(CCN5CCN(c6ccc7c(c6)C(=O)N(C6CCC(=O)NC6=O)C7=O)CC5)c4)cc3)cc21` (centres unmarked) [Compound 12] gave a Dmax in series [2] (LNCaP) of 75%. The compound also gave a DC50 in series [2] (24 hours treatment) of 78.8 nM. In series [1] (LNCaP), the Emax turned out to be 68% and the pIC50 is 7.09.
The compound `CC1(C)C(=O)N(c2ccc(C#N)c(Cl)c2)c2ccc(-c3ccc(-c4cnn(CCCN5CCN(c6ccc7c(c6)C(=O)N(C6CCC(=O)NC6=O)C7=O)CC5)c4)cc3)cc21` (centres unmarked) [Compound 13] registered a Dmax in series [2] (LNCaP) of 100%. The same compound displayed a DC50 in series [2] (24 hours treatment) of 73.4 nM.
On to `CC1(C)C(=O)N(c2ccc(C#N)c(C(F)(F)F)c2)c2ccc(-c3ccc(N4CC(CN5CCN(c6ccc7c(c6)C(=O)N(C6CCC(=O)NC6=O)C7=O)CC5)C4)nc3F)cc21` (centres unmarked) [Compound 15], for which the Dmax in series [2] (LNCaP) turned out to be 67%. This compound also displayed a DC50 in series [2] (24 hours treatment) of 3.49 nM. Also, in series [3] (VCaP), the Emax amounted to 92% and the pIC50 was 7.09.

Source of the values: patent US12441706B2, “Protein degradation agent compound preparation method and application” (SHANGHAI JEMINCARE PHARMACEUTICALS CO., LTD., priority 2019, dated 2025).
